Assay results reported in publication PMC9312158, “Novel 1,2,3-Triazole-sulphadiazine-ZnO Hybrids as Potent Antimicrobial Agents against Carbapenem Resistant Bacteria” (Antibiotics, 2022).
Where two headings read alike, the source gives them in different places.

Assays:
NDM-1 = NDM-1 (Klebsiella pneumoniae, UniProt C7C422); test: In vitro MBLs inhibition assay with CENTA substrate, NDM-1; format: biochemical; conditions: for inhibition at 5 µM: 5 µM compound, CENTA 70 µM
Experimental: (§1) Assays of enzyme inhibition were measured in the absence and presence of 5 µM of compound 4a–c and their ZnO conjugated hybrids to determine their inhibitory activity (IMP1 and NDM-1). CENTA (70 µM), a chromogenic cephalosporin substrate, was employed. The chromophore […] is formed when MBLs hydrolyze CENTA, and its generation may be detected spectrophotometrically using a plate reader at = 405 nm (at pH 7.0, ε = 6400 M^−1 cm^−1). Assays of kinetics of the inhibition experiments were carried out in accordance with earlier research. Non-linear regression was used to examine the inhibition data.

IMP-1 = IMP-1 (Serratia marcescens, UniProt P52699); test: In vitro MBLs inhibition assay with CENTA substrate, IMP-1; format: biochemical; conditions: for inhibition at 5 µM: 5 µM compound, CENTA 70 µM, read-out: % Inhibition IPM-1 (5 µM)
IMP-1, sequence (P52699 19-246, looked up, species assumed): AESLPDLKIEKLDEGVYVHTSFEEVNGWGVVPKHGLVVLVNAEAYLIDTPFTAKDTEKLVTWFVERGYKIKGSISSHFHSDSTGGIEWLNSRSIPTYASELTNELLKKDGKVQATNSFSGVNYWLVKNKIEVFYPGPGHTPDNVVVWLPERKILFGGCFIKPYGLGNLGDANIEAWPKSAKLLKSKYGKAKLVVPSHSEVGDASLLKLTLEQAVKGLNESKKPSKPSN
Experimental: as §1

[1] = inhibition constant for the competitive inhibition mode, read-out: NDM-1 Kic
[2] = inhibition constant for the uncompetitive inhibition mode, read-out: NDM-1 Kiuc
[3] = inhibition constant for the competitive inhibition mode, read-out: IPM-1 Kic
[4] = inhibition constant for the uncompetitive inhibition mode, read-out: IPM-1 Kiuc

NDM-1, sequence (C7C422 29-270, looked up, species assumed): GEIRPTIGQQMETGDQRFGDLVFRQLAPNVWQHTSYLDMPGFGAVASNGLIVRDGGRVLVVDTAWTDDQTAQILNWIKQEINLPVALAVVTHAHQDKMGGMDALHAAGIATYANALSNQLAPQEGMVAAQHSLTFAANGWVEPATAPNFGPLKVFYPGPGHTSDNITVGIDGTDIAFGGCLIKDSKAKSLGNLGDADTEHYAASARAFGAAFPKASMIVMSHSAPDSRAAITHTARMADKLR

inhibition at 5 µM (NDM-1) [%]	Ki (NDM-1; [1]) [µM]	Ki (NDM-1; [2]) [µM]	inhibition at 5 µM (IMP-1) [%]	Ki (IMP-1; [3]) [µM]	Ki (IMP-1; [4]) [µM]	Compound
71.2	9.6	6	75	11.8	7.7	O=S(=O)(Nc1ncccn1)c1ccc(-n2cc(CO)nn2)cc1 [Compound 3a]
68.7	9	6	75.4	11.4	7.6	O=S(=O)(Nc1ccccn1)c1ccc(-n2cc(CO)nn2)cc1 [Compound 3b]
64.3	8.5	3.9	72.9	10.9	5.1	NC(N)=NS(=O)(=O)c1ccc(-n2cc(CO)nn2)cc1 [Compound 3c]
